# Source: publication PMC9503009, “Determining Ligand and Ion-Induced Conformational Changes in Serotonin Transporter with Its Fluorescent Substrates” (International Journal of Molecular Sciences, 2022)
# Where two headings read alike, the source gives them in different places.
# Tests used:
# Type in all cases: cell-based
# [1] = biological target: T1, SERT Y107C/C109A (Rattus norvegicus, UniProt P31652, C109A/Y107C); assay: MTSET inhibition of APP+ uptake in live cells (extracellular pathway cysteine accessibility)
# T1 construct: expressed in transfected cells
# Method: (§1) Figure 3 Reactivity of the extracellular cysteine mutants with MTSET. (A) MTSET concentration-dependent inhibition of APP^+ uptake. The cells stably expressing C109A, Y107C/C109C, or S404C/C109A were incubated for 15 min with indicated concentrations of MTSET. The MTSET concentration giving half-maximal inhibition of APP^+ accumulation in the cells was used to calculate inactivation rate constants as plotted in (B). […] Representative images of APP^+ uptake by C109A, Y107C/C109A, or S404C/C109A under various MTSET concentrations were shown in Supplemental Figure S1. […] (B) Rate constants of MTSET inhibition of APP^+ uptake. At the half-maximal concentration, the half-time is the assay time (15 min) and the first-order rate constant is 7.7 × 10^−4 s^−1. This rate constant was divided by the half maximal MTSET concentration from (A) to obtain the pseudo first-order modification rate constant. Error bars represent SEM of three experiments.
# (A) MTSET concentration-dependent inhibition of APP^+ uptake. […] After washing to remove excess MTSET and ligands, APP^+ uptake was measured as described under “Materials and Methods”. […] (B) Rate constants of MTSET inhibition of APP^+ uptake. The IC50 values of MTSET inhibition were used to calculate rate constants as described under “Materials and Methods”. Error bars represent SEM from three experiments.
# (§2) The cells stably expressing Y107C/C109A or S404C/C109A were preincubated with indicated ligands and MTSET at a concentration of 0.01 mM for Y107C/C109A or 0.002 mM for S404C/C109A at 22 °C for 15 min, respectively. At the end of this incubation, cells were washed free of MTSET and ligands into KRH buffer containing NaCl and APP^+. APP^+ uptake was measured as described under “Materials and Methods”. Error bars represent SEM from three experiments. Asterisks and hashtags indicate statistically significant changes (p < 0.05) in the accumulated APP^+ fluorescence compared with the corresponding control (MTSET alone).
# The cells stably expressing Y107C/C109A were treated at 22 °C for 15 min with indicated concentrations of MTSET in the absence or presence of 10 μM vilazodone. After washing to remove excess MTSET and vilazodone, APP^+ uptake was measured as described under “Materials and Methods”. […] The IC50 values of MTSET inhibition were used to calculate rate constants as described under “Materials and Method”. Error bars represent SEM from three experiments. […] After washing to remove excess MTSEA and vilazodone, ASP^+ binding was measured as described under “Materials and Methods”. […] The IC50 values of MTSEA inhibition of ASP^+ binding were converted to rate constants.
# [2] = biological target: T2, SERT S404C/C109A (Rattus norvegicus, UniProt P31652, C109A/S404C); assay: as above
# T2 construct: expressed in transfected cells
# Method: as §1, §2
# Accessibility of the cysteine residues in the extracellular pathway was measured by reactivity of Y107C/C109A and S404C/C109A mutants with MTSET. The cells stably expressing Y107C/C109A or S404C/C109A were incubated with MTSET over a range of concentrations in HEPES buffer containing indicated ligands or ions at 22 °C for 15 min. After excess MTSET and ligands were removed by rapid 3 × washing with the same buffer, the cells were then incubated with APP^+ at a final concentration of 2 μM in KRH buffer at 22 °C for another 5 min. The extent of APP^+ accumulated in the cells was determined by confocal imaging analysis in the live cells. To measure the effects of antidepressants, substrate 5-HT, or other ligands such as 5-HTP or tryptophan, where added, was present at 10 μM. To measure the effects of ions, 150 mM […] (NMDG) gluconate, and NMDG chloride, sodium isethionate, or NaCl was used as indicated. These measurements of reactivity depend on the ability of MTSET to inactivate APP^+ transport activity by an allosteric mechanism. The MTSET concentration causing half-maximal inactivation was determined and used to calculate the rate constant for cysteine modification, as described previously.
# [3] = biological target: T3, SERT S277C/X5C (Rattus norvegicus, UniProt P31652, C109A/C15A/C21A/C357I/C622A/S277C); assay: MTS reagent inhibition of ASP+ binding in digitonin-permeabilized cells (cytoplasmic pathway cysteine accessibility)
# T3 construct: expressed in transfected cells
# Method: After 3 × rapid washing with KRH buffer, APP^+ or ASP^+ accumulation was measured as described under “Materials and Methods”. […] These representative images were parallelly acquired from one experiment. […] After 3 × washing, ASP^+ binding to the cell membrane was measured as described under “Materials and Methods”. […] (D) The effects of MTSET on ASP^+ binding of S277C/X5C and X5C. […] After 3 × rapid washing, ASP^+ binding was measured as described under “Materials and Methods”.
# After washing to remove excess MTSEA and ligands, ASP^+ binding was measured as described under “Materials and Methods”. […] The IC50 values of MTSEA inhibition of ASP^+ binding were converted to rate constants.
# The cells stably expressing Y107C/C109A were treated at 22 °C for 15 min with indicated concentrations of MTSET in the absence or presence of 10 μM vilazodone. After washing to remove excess MTSET and vilazodone, APP^+ uptake was measured as described under “Materials and Methods”. […] The IC50 values of MTSET inhibition were used to calculate rate constants as described under “Materials and Method”. Error bars represent SEM from three experiments. […] After washing to remove excess MTSEA and vilazodone, ASP^+ binding was measured as described under “Materials and Methods”. […] The IC50 values of MTSEA inhibition of ASP^+ binding were converted to rate constants. […]
# For cytoplasmic pathway accessibility, measurements were performed with the cells stably expressing S277C/X5C. […] The cells, then, were washed free of unreacted MTSEA and ligands, ASP^+ binding was measured by adding 500 μL KRH buffer containing 10 μM ASP^+ and incubating at 22 °C for 5 min. Excess ASP^+ was removed by 3 × rapid washing with KRH buffer and ASP^+ fluorescence retained in the cell membrane was measured by confocal imaging analysis in the permeabilized cells. […] The MTSEA IC50 value was determined and used to calculate the rate constant for S277C/X5C modification.
# [4] = biological target: T4, WT-SERT (Rattus norvegicus, UniProt P31652); assay: Kinetic analysis of APP+ or ASP+ uptake by fluorescence imaging in stably expressing cells; details: 22 °C, 5 min, mean ± SEM of three experiments
# T4 construct: expressed in transfected cells
# Method: Figure 1 Kinetic analysis and ion requirements for APP^+ or ASP^+ uptake by SERT. (A) Kinetic analysis for APP^+ or ASP^+ uptake by SERT. […] After washing to remove excess APP^+ or ASP^+, the accumulated fluorescence within the cells (n ≥ 30) were counted and normalized to the cell areas, as described under “Materials and Methods”. […] (B) Ion-dependence of APP^+ or ASP^+ uptake. APP^+ or ASP^+ uptake was measured by incubating the cells stably expressing WT- SERT with APP^+ at 2 μM or ASP^+ at 10 μM in HEPES buffer containing 150 mM NMDGCl, sodium isethionate, or NaCl, respectively. Error bars represent SEM of three experiments.
# The cells stably expressing SERT-WT or mutants were wet mounted on polylysine-coated glass slides and applied for indicated treatments. In brief, the cells were washed twice with 500 μL KRH buffer containing 20 mM HEPES, pH 7.4, 120 mM NaCl, 1.3 mM KCl, 2.2 mM CaCl2, 1.2 mM MgSO4, and 0.1% (w/v) glucose. APP^+ or ASP^+ accumulation was measured by adding 500 μL KRH buffer containing 2 μM APP^+ or 10 μM ASP^+ and incubating for 5 min at 22 °C. Excess APP^+ or ASP^+ was then removed by rapid washing three times with 500 μL KRH buffer. The extent of APP^+ or ASP^+ accumulated in the cells was determined with confocal imaging analysis.
# Images were acquired at 22 °C using a 20 or 60 × water immersion objective with the Zeiss LSM 900 confocal microscope. APP^+ and ASP^+ were excited by an argon laser with excitation peak at 488 nm. APP^+ fluorescence was captured at 490–565 nm and ASP^+ fluorescence at 600–650 nm. Images were analyzed using National Institutes of Health ImageJ v1.53q. Fluorescence intensity in each cell was counted and normalized to the cell area (mean fluorescence). To obtain ASP^+ binding on the cell surface, intracellular ASP^+ fluorescence intensity was subtracted from total fluorescence in each cell, and the resulting ASP^+ fluorescence on the cell surface was then normalized to the cell membrane area.
# [5] = biological target: T1, SERT Y107C/C109A; assay: as above; details: 22 °C, 5 min
# [6] = biological target: T2, SERT S404C/C109A; assay: as above; details: for Km / Vmax: uptake by cells stably expressing S404C/C109A, 22 °C, 5 min
# [7] = biological target: T3, SERT S277C/X5C; assay: as above; details: for Km / Vmax: uptake by cells stably expressing S277C/X5C, 22 °C, 5 min
# [8] = Y107C/C109A, MTSET 0.01 mM, ligand 10 μM, 22 °C, 15 min
# [9] = S404C/C109A, MTSET 0.002 mM, ligand 10 μM, 22 °C, 15 min
compound,measurement,setting,value
"NCCc1c[nH]c2ccc(O)cc12 [5-HT, 5-hydroxytrypatamine]",decrease of MTSET rate constant compared with control,"[1]; Y107C/C109A, 10 μM ligand with Na+ and Cl−, control MTSET alone",~2 folds
same,effect of ligand on reactivity with MTSET,[1]; [8],significantly decreased the reactivity
same,effect of ligand on reactivity with MTSET,[2]; [9],significantly decreased the reactivity
same,increase of rate constant of MTSEA modification compared with control,"[3]; S277C/X5C, 10 μM ligand in the presence of NaCl, 25 μg/mL digitonin",~ 2 folds
"N[C@@H](Cc1c[nH]c2ccc(O)cc12)C(=O)O [5-HTP, 5-hydroxytryptophan]",effect of ligand on reactivity with MTSET,[1],little effect on the reactivity
same,effect of ligand on reactivity with MTSET,[2],little effect on the reactivity
"CN(C)c1ccc(-c2cc[n+](C)cc2)cc1 [APP^+, 4-[4-(dimethylamino)phenyl]-1-methylpyridinium]",Km,[4],2.63 ± 0.06 µM
same,Vmax,[4],30.5 ± 1.4 AFU
same,Km,[5],2.39 ± 0.04 µM
same,Vmax,[5],39.4 ± 1.8 AFU
same,Km,[6],2.07 ± 0.04 µM
same,Vmax,[6],34.9 ± 1.2 AFU
same,Km,[7],1.99 ± 0.05 µM
same,Vmax,[7],26.5 ± 1.1 AFU
"CN(C)c1ccc(C=Cc2cc[n+](C)cc2)cc1 [ASP^+, 4-(4-(dimethylamino)styryl)-N-methylpyridinium]",Km,[4],8.52 ± 0.15 µM
same,Vmax,[4],75.8 ± 5.3 AFU
same,Km,[5],9.32 ± 0.48 µM
same,Vmax,[5],59.9 ± 4.2 AFU
same,Vmax value relative to the WT,"[6]; S404C/C109A, ASP+ as substrate",~70%
same,Km,[6],8.87 ± 0.59 µM
same,Vmax,[6],53.2 ± 3.8 AFU
same,Vmax value relative to the WT,"[7]; S277C/X5C, ASP+ as substrate",~50%
same,Km,[7],9.66 ± 0.94 µM
same,Vmax,[7],40.2 ± 3.0 AFU
"N[C@@H](Cc1c[nH]c2ccccc12)C(=O)O [Trp, tryptophan]",effect of ligand on reactivity with MTSET,[1],little effect on the reactivity
same,effect of ligand on reactivity with MTSET,[2],little effect on the reactivity
CN(C)CCCN1c2ccccc2CCc2ccccc21 [imipramine],effect of ligand on reactivity with MTSET,[1]; [8],markedly increased the reactivity
same,effect of ligand on reactivity with MTSET,[2]; [9],markedly increased the reactivity
N#Cc1ccc2[nH]cc(CCCCN3CCN(c4ccc5oc(C(N)=O)cc5c4)CC3)c2c1 [vilazodone],effect on Cys107 reactivity with MTSET,"[1]; intact cells expressing Y107C/C109A, 10 μM vilazodone",increased Cys107 reactivity
same,effect on Cys277 reactivity with MTSEA,"[3]; digitonin-permeabilized cells expressing S277C/X5C, 10 μM vilazodone",decreased Cys277 reactivity
